Assay results taken from patent US11426409B2, “Compounds, compositions and methods for treating or preventing HER-driven drug-resistant cancers” (The Regents of the University of Colorado, priority 2017, dated 2022).

Test system: HER2 phosphorylation
Details: HER2-driven cell lines, 2 hours, normoxic, immunoblot

SMILES: CN(C)CC=CC(=O)Nc1cc2c(Nc3ccc(F)c(Cl)c3)ncnc2cc1O[C@H]1CCOC1 [afatinib, N-[4-[(3-Chloro-4-fluorophenyl)amino]-7-[[(3S)-tetrahydro-3-furanyl]oxy]-6-quinazolinyl]-4(dimethylamino)-2-butenamide]
- Concentration inhibiting HER2 phosphorylation (pHER2): 100 nM
